{"source": "patent US20210260022A1", "about": "“SYNERGY FOR INCREASING ENERGY EXPENDITURE AND INSULIN SENSITIVITY” (The Board of Supervisors of Louisiana State University and …, priority 2018, published 2021)", "key": {"human adipocytes [1]": {"test_system": "human adipocytes", "test": "mRNA expression (Taqman RT-PCR) in differentiated human adipocytes after 7 day treatment", "type": "cell-based", "procedure": "Carotenoids tested were β-carotene (βCar), Lycopene (lyco) and lutein. […] In our preclinical lab at PBRC, human subcutaneous adipocyte cell cultures were treated with naringenin at a concentration of 10 μM for seven days. […] Differentiated human adipocytes were treated with 10 μM naringenin for 7 days. Gene expression was analyzed using Taqman RT-PCR and values are expressed as fold increase over untreated controls (n=5). […] Activated AMPK induces glucose consumption and fat oxidation in adipose tissue. Carotenoids are vitamin A precursors found in foods and their consumption can cause reduction in adiposity and insulin resistance in pediatric clinical trials (Canas et al., 2012; Canas et al., 2017). After ingestion, they are metabolized into retinoid ligands for retinoic acid receptors (RAR) and retinoic X receptors (RXR) which are localized in the cell nucleus. RXRs form heterodimers with PPARs in transcriptional complexes known to target genes for energy expenditure and fat oxidation (Bonet et al., 2015)."}, "human adipocytes [2]": {"test_system": "human adipocytes", "test": "Western blotting of protein levels in treated human adipocytes", "type": "cell-based", "procedure": "Referring to FIG. 2, human adipocyte cultures were treated with naringenin for 0, 3 or 7d. Total protein was isolated and analyzed by Western Blotting. […] TGX SDS-PAGE gels (7.5%TM, BioRad) were used to separate 50 μg of solubilized protein per sample. Following transfer, nitrocellulose membranes were probed overnight at 4° C. with primary monoclonal antibodies against adiponectin, NAMPT, and PPARγ (Santa Cruz), PGC-1α monoclonal (4C1.3, EMDmillipore) and β-Actin (A5316, Sigma). HRP-linked anti-rabbit (12-348, Sigma) and anti-mouse (A[…], Sigma) were used to detect specific antibody-antigen complexes. Proteins were visualized by chemiluminescence (Western Lightning Plus-ECL, PerkinElmer, Waltham, Mass.). Bands were quantified using ImageJ software and values shown are normalized to β-actin."}, "human adipocytes [3]": {"test_system": "human adipocytes", "test": "Oxygen consumption rate in human adipocytes, Seahorse XF24", "type": "cell-based", "settings": "treated for 7d", "procedure": "Referring to FIG. 3, oxygen consumption rate in human adipocytes after Naringenin treatment. Cells were treated for 7d and OCR was measured using a Seahorse XF24. Rosiglitizone and GW7647 (activators of PPARγ and PPARα) were included as positive controls."}, "[4]": {"test": "Eight-week case study of naringenin 150 mg three times daily in a subject with diabetes", "type": "in vivo, human", "procedure": "A subject was recruited. […] The subject met the inclusion criteria of fasting blood glucose between 126 and 200 mg/dL. They had been prescribed metformin but had discontinued the medication due to gastrointestinal intolerance. Exclusion criteria consisted of known allergy to citrus fruit. The study was approved by the Pennington Biomedical Research Center (PBRC) Institutional Review Board. The participant provided written informed consent. Procedures were in accordance with PBRC's ethical standards. We conducted an eight-week case study. The subject completed three visits to the clinic. Visits were performed in the morning after an overnight fast for at least eight hours where only water was permitted. At the baseline visit, upon arrival, weight and vital signs (blood pressure and heart rate) were measured. […] Blood was collected for a chemistry panel (glucose, insulin, creatinine, potassium, uric acid, albumin, calcium, magnesium, creatine phosphokinase, alanine aminotransferase, alkaline phosphatase, iron, total cholesterol high density lipoprotein cholesterol [HDL-C], low density lipoprotein cholesterol [LDL-C], and triglycerides) and a complete blood count (CBC). Resting metabolic rate (RMR) was measured over five hours at baseline and at the end of eight weeks using the ventilated hood to collect expirated gases. The test required the subject to lie quietly in bed after ingesting a capsule containing 150 mg naringenin. To evaluate the subject's metabolic rate, oxygen consumed and the carbon dioxide given off were measured during the last thirty minutes of each hour. Following the baseline testing, the subject was given 100 capsules each containing 150 mg naringenin with instructions to take one orally three times daily. At weeks two and six, the subject received a phone call from the study coordinator and was asked about their progress and compliance. Changes in medications and adverse events were also evaluated. They were encouraged to comply with the study protocol. At week four, the subject returned to the clinic and their weight, blood pressure, and heart rate were measured. Any remaining capsules were collected and compliance was assessed. Naringenin (100 capsules) for the next four weeks was dispensed. Week eight marked the subject's last visit and involved repeating the baseline testing. At this visit, the subject returned any remaining capsules, and compliance was assessed. Whole sweet oranges (Citrus Sinensis) were subjected to an aqueous and ethanolic extraction process, dried, milled, and provided in a powder form by Green Chem/Gencor Lifestage Solutions (Irvine, Calif.). The quantification of naringenin in the extract, and the safety and pharmacokinetics of the extract in humans are previously described.^15 The extract contained 28% naringenin. Therefore each capsule prepared by the PBRC pharmacist contained 536 mg of the extract."}, "[5]": {"settings": "150 mg three times a day for eight weeks (Murugesan et al., 2020); cited from earlier work"}, "[6]": {"settings": "cited from earlier work"}, "PPARα": {"target": "T1, PPARα (Homo sapiens, UniProt Q07869)", "T1 sequence (Q07869 1-468)": "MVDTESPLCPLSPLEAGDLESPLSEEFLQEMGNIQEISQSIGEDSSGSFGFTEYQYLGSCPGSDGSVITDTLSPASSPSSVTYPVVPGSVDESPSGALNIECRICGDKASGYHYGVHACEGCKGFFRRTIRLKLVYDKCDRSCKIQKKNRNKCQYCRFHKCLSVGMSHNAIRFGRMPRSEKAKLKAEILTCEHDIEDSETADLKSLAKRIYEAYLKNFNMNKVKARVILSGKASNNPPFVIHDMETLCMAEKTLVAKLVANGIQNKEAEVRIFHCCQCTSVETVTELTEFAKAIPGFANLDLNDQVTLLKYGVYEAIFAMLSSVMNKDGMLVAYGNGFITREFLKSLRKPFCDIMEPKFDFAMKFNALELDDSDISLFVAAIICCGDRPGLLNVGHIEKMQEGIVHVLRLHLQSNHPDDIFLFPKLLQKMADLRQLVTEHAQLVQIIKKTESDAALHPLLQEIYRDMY", "settings": "reporter gene assays; cited from earlier work"}, "cytochrome P450 enzymes": {"test_system": "cytochrome P450 enzymes", "settings": "in vivo studies in humans; cited from earlier work"}}, "note": "“Also recorded” adds a separate entry of the source. Like-named read-outs stand apart in the source and are kept apart here.", "data": [{"molecule": "O=C1C[C@@H](c2ccc(O)cc2)Oc2cc(O)cc(O)c21", "note": "[naringenin]", "values": [{"measurement": "expression of UCP1, GLUT4 and CPT-1 genes", "setting": "human adipocytes [1]; 10 μM for seven days, human subcutaneous adipocytes", "value": "Significant increases"}, {"measurement": "Adiponectin RNA expression and adiponectin protein levels", "setting": "human adipocytes [1]; naringenin at 10 micromolar", "value": "went up"}, {"measurement": "RNA and protein expression of uncoupling protein-1, adipose tissue glyceride lipase, carnitine palmitoyl transferase-1, glucose transporter-4, ChREBP alpha and beta", "setting": "human adipocytes [1]; naringenin at 10 micromolar", "value": "increasing RNA and protein expression"}, {"measurement": "protein levels of UCP1, GLUT4, and ChREBP", "setting": "human adipocytes [2]; 10 μM naringenin for 7 days", "value": "Corresponding increases"}, {"measurement": "AMPK activation (phospho-AMPK)", "setting": "human adipocytes [2]; naringenin 0, 3 or 7d", "value": "activates AMPK"}, {"measurement": "oxygen consumption rate: basal and maximal energy expenditure", "setting": "human adipocytes [3]", "value": "significantly increases basal and maximal energy expenditure"}, {"measurement": "oxygen consumption rate: basal and maximal energy expenditure", "setting": "human adipocytes [3]; listed as Naringenin", "value": "increase in oxygen consumption"}, {"measurement": "loss of body weight", "setting": "[4]; 150 mg three times a day, in 8 weeks", "value": 2.3, "unit": "%"}, {"measurement": "reduction in HOMA-IR", "setting": "[4]; absolute, eight weeks vs baseline", "value": 0.6}, {"measurement": "maximal respiratory quotient increase above baseline", "setting": "[4]; at one hour", "value": 1.2, "unit": "%"}, {"measurement": "RMR peak above baseline", "setting": "[4]; at one hour, after eight weeks", "value": 3.5, "unit": "%"}, {"measurement": "triglycerides after eight weeks", "setting": "[4]; baseline 53 mg/dL", "value": 70, "unit": "mg/day"}, {"measurement": "HOMA-IR at the end of the study", "setting": "[4]; baseline 3.4", "value": 2.8}, {"measurement": "Low density lipoprotein cholesterol decrease", "setting": "[4]; calculated with the Friedewald equation", "value": 10.3, "unit": "mg/dL"}, {"measurement": "adverse events", "setting": "[4]; eight weeks", "value": "No adverse events were reported"}, {"measurement": "blood safety markers", "setting": "[4]; eight weeks", "value": "within their reference ranges; also recorded: no clinically significant changes"}, {"measurement": "change in respiratory quotient", "setting": "[4]; eight weeks", "value": "no change; also recorded: did not change"}, {"measurement": "HOMA-IR reduction", "setting": "[4]; eight weeks vs baseline", "value": 17.6, "unit": "%"}, {"measurement": "change in glucose", "setting": "[4]; eight weeks vs baseline", "value": "not clinically significant"}, {"measurement": "triglycerides increase", "setting": "[4]; eight weeks vs baseline 53 mg/dL", "value": 32, "unit": "%"}, {"measurement": "loss of body weight at the 6 month plateau", "setting": "[4]; extrapolated from 8 weeks", "value": 4.6, "unit": "%"}, {"measurement": "Body weight decrease", "setting": "[4]; over eight weeks, vs baseline", "value": 2.3, "unit": "kg"}, {"measurement": "body weight reduction", "setting": "[5]", "value": 2.5, "unit": "%"}, {"measurement": "serum concentrations of naringenin", "setting": "[6]; after orange juice and fruit", "value": "< 1", "unit": "μm"}, {"measurement": "presence in serum", "setting": "[6]; lowest dose of 150 mg", "value": "present in serum at concentrations sufficient to elicit a physiologic response"}, {"measurement": "physiologically attainable concentration", "setting": "[6]; pharmacokinetic studies in humans", "value": 10, "unit": "μM"}, {"measurement": "adverse events", "setting": "[6]; single ascending dose trial of whole orange extract", "value": "no adverse events were observed at any dose"}, {"measurement": "activation of PPARα", "setting": "PPARα", "value": "Direct activation"}, {"measurement": "inhibition of cytochrome P450 enzymes", "setting": "cytochrome P450 enzymes", "value": "not the main inhibitory compound in grapefruit"}]}]}
